Entries after “also recorded” stand apart in the source; their conditions may differ. Marks after values point to notes of the source that are not given here. Where a SMILES comes first, the peptide text is derived from it. The star is where a group is joined. Cbz = O=C(OCc1ccccc1)*
What was measured:
Type in all cases: cell-based, pig
CMAH gene = test: CRISPR activity assay with TIDE analysis, CMAH target locus
Protocol: Cell culture and transfection was performed as described in Example 4 section 4.1.2.
The CRISPR activity assay was performed as described in Example 4 section 4.1.3 using the CMAH-specific CRISPRs (68rev, 165fw) and CMAH primers (CMAHF-[…] (SEQ ID NO: 48) and CMAHR-[…]3 (SEQ ID NO: 49)).

porcine SCNT embryos = test: Zona-free somatic cell nuclear transfer (SCNT) embryo development in vitro
Protocol: Ovaries were sourced from pre-pubertal gilts slaughtered at the Ruakura abattoir (AgResearch, New Zealand). Cumulus-oocyte complexes (COCs) were recovered by follicular aspiration and matured in vitro (IVM) for 44 h. Two IVM systems to mature porcine oocytes were compared: biphasic (ESOF and LSOF) IVM1/2 medium containing 1 mM dibutyryl cyclic adenosine monophosphate for the first 20-24 h (Bagg et al., 2006; Somfai and Hirao, 2011) and FLI medium supplemented with FGF2, LIF and IGF1 for the entire IVM period (Yuan et al., 2017).
COCs were denuded by vortexing with 0.1% hyaluronidase (Sigma) at 2000 rpm for about 60-90 sec. Oocytes were washed twice in HEPES-buffered TCM199 medium (H199)+10% FCS. Denuded oocytes were incubated for 10 min with 0.2M sucrose in H199+10% FCS. Oocytes that maintained a regular, round shape (but smaller diameter) along with a first polar body (1PB) were selected for use.
For zona-free SCNT, pronase was used to remove the zona pellucida. Oocytes were washed thoroughly before staining DNA with 5 μg/mL H33342 plus 7.5 μg/mL cytochalasin B (all Sigma) for 5 min. A 24 μm outer diameter blunt-ended pipette was used for UV-assisted enucleation of metaphase II stage oocytes at 35° C.
Donor cells (e.g. NZK1 kidney fibroblasts) were trypsinised to a single cell suspension after 5-7 days in medium with 0.5% FCS. Single cells were adhered to each enucleated cytoplast with the aid of 20 μg/mL phytohemagglutinin in H199+3 mg/mL BSA. […] Following fusion, reconstructed embryos were held in embryo culture medium without Ca+10% FCS+5 μg/mL cytochalasin B at 38.5° C. in 5% CO2 in air for 2-4 h before activation.
To maintain high levels of maturation promoting factor-cyclin B complex in oocytes aiding nuclear reprogramming, some experiments compared the addition of 5 μM of the proteasome inhibitor MG132 (Sigma). This was added to media formulations from the time of sucrose selection of oocytes until activation of NT reconstructed embryos (Le Bourhis et al., 2010).
Activation of reconstructed NT embryos was initiated with three direct current pulses of 1.0-1.5 kV/cm for 80 μs each, in buffer containing 0.1 mM calcium, ˜50-52 h after the start of IVM.
Within 5 min of electrical stimulation, reconstructed embryos were transferred to culture medium (e.g. ESOF) supplemented with 2 mM 6-dimethylaminopurine+5 μg/mL cytochalasin B and cultured individually in 5 μL drops for 3 h at 38.5° C. In 5% CO2. Afterwards, embryos were washed thoroughly in HEPES SOF before in vitro culture for 6-7 days. […] Embryo development was assessed on Day 6 or 7 and the numbers of nuclei in resulting blastocysts determined in selected experiments.

[1] = test system: parthenogenetically activated porcine oocytes; test: Parthenogenetic oocyte activation (PG) embryo development in vitro; conditions: PG embryos; 5 μM MG132 from oocyte selection until activation
[2] = SCNT embryos, 5 μM MG132 from oocyte selection until activation

Row | Compound | CRISPR activity compared to the second CMAH CRISPR 165fw (CMAH gene) | Benefit in terms of in vitro development following SCNT or PG (porcine SCNT embryos; 5 μM MG132 between oocyte selection and activation, preliminary experiment) | Blastocyst Development Day 7 (porcine SCNT embryos; [2]) | Cleavage (porcine SCNT embryos; [2]) | Fusion (porcine SCNT embryos; [2]) | Blastocyst Development Day 7 [1] | Cleavage [1]
1 | 68rev: guide RNA targeting exon 3 of CMAH, TAAGAATAAGAGCCGCCTGA (SEQ ID NO: 46) (listed as DNA, chemistry not given here) | higher activity |  |  |  |  |  | 
2 | CC(C)C[C@@H](C=O)NC(=O)[C@H](CC(C)C)NC(=O)[C@H](CC(C)C)NC(=O)OCc1ccccc1 [MG132] (Cbz-Leu-Leu-Leu-aldehyde) |  | unable to show any benefit; also recorded: showed no benefit | 11%^b | 99% | 49% | 23% | 100%
